In the assay the test system is BDF1 mice, B16 melanoma ip, median survival T/C. The experiment in a line: NCI In Vivo Anticancer Drug Screen. Data for tumor model B16 Melanoma (intraperitoneal) in B6D2F1 (BDF1) mice. To be noted: endpoint: median survival time, higher = longer survival. The method in brief:
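Read-out: survival or tumor size, given as treated/control ratio. Controls received vehicle only; animals bore transplantable tumors.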

Where [1] appears, read: dose: 100.0 mg/kg/injection, schedule: Q01DX009 (ip), vehicle: saline with Tween-80.
The mark [2] stands for this setting: dose: 200.0 mg/kg/injection, schedule: Q01DX009 (ip), vehicle: saline with Tween-80.
[3] abbreviates: dose: 400.0 mg/kg/injection, schedule: Q01DX009 (ip), vehicle: saline with Tween-80.
Where [4] appears, read: dose: 50.0 mg/kg/injection, schedule: Q01DX009 (ip), vehicle: saline with Tween-80.
Where [5] appears, read: dose: 6.25 mg/kg/injection, schedule: Q01DX009 (ip), vehicle: saline with Tween-80.
The mark [6] stands for this setting: dose: 12.5 mg/kg/injection, schedule: Q01DX009 (ip), vehicle: saline with Tween-80.
Setting [7] is: dose: 6.25 mg/kg/injection, schedule: Q01DX009 (ip), vehicle: saline.
[8] abbreviates: dose: 100.0 mg/kg/injection, schedule: Q01DX009 (ip), vehicle: saline.
The mark [9] stands for this setting: dose: 6.25 mg/kg/injection, schedule: Q01DX009 (ip), vehicle: Klucel (hydroxypropylcellulose) (HPC).
The mark [10] stands for this setting: dose: 12.5 mg/kg/injection, schedule: Q01DX009 (ip), vehicle: Klucel (hydroxypropylcellulose) (HPC).
[11] abbreviates: dose: 25.0 mg/kg/injection, schedule: Q01DX009 (ip), vehicle: Klucel (hydroxypropylcellulose) (HPC).

“And” between values parts separate entries of the source, which are not always exact repeats. Equal entries are not always repeated. Inconclusive results and toxic doses are left out.

As for `CCCCCCCCCCCCCCCC(=O)O[C@@]12C[C@@H](C)[C@@]3(O)[C@@H](C=C(CO)C[C@]4(O)C(=O)C(C)=C[C@@H]34)[C@@H]1C2(C)C`, the T/C was 103 % of control (dose: 0.03 mg/kg/injection, schedule: Q01DX009 (ip), vehicle: saline + Tween-80 + alcohol); 94 % of control (dose: 0.03 mg/kg/injection, schedule: Q01DX009 (ip), vehicle: saline); 109 % of control (dose: 0.06 mg/kg/injection, schedule: Q01DX009 (ip), vehicle: saline + Tween-80 + alcohol); 99 % of control (dose: 0.06 mg/kg/injection, schedule: Q01DX009 (ip), vehicle: saline); 96 % of control (dose: 0.12 mg/kg/injection, schedule: Q01DX009 (ip), vehicle: saline); 103 % of control (dose: 0.13 mg/kg/injection, schedule: Q01DX009 (ip), vehicle: other). For the same compound, the T/C is 110 % of control (dose: 0.13 mg/kg/injection, schedule: Q01DX009 (ip), vehicle: saline + Tween-80 + alcohol); 92 % of control (dose: 0.25 mg/kg/injection, schedule: Q01DX009 (ip), vehicle: saline); 92 % of control (dose: 0.5 mg/kg/injection, schedule: Q01DX009 (ip), vehicle: saline).
In the case of `CC(=O)Oc1cccc(C#N)c1`, the T/C is 108 % of control under setting [1], 112 % of control under setting [2] and 91 % of control under setting [3].
On to `CC(=O)N\C(N)=N/N=C\C(C)=N/N=C(\N)NC(C)=O`, for which the T/C is, setting by setting: under setting [4], 108 % of control; under setting [1], 99 % of control; under setting [2], 94 % of control.
As to `COc1ccc2c(c1OC(C)=O)-c1cc(O)cc3c1C(C2)N(C(=O)CN(CCCl)CCCl)CC3` (stereo unspecified), the T/C was 168 % of control (dose: 3.12 mg/kg/injection, schedule: Q01DX009 (ip), vehicle: saline with Tween-80); 187 % of control under setting [5]; 103 % of control (dose: 6.25 mg/kg/injection, schedule: Q04DX003 (ip), vehicle: DMSO); 197 % of control under setting [6]; 121 % of control (dose: 12.5 mg/kg/injection, schedule: Q04DX003 (ip), vehicle: DMSO); 110 % of control (dose: 25.0 mg/kg/injection, schedule: Q04DX003 (ip), vehicle: DMSO). The T/C (dose: 100.0 mg/kg/injection, schedule: Q04DX003 (ip), vehicle: DMSO) was 112 % of control.
With `C(=Nc1ccc2c(c1)Cc1ccccc1-2)c1ccnc2ccccc12`, the T/C is 103 % of control (dose: 100.0 mg/kg/injection, schedule: Q01DX009 (ip), vehicle: Klucel (hydroxypropylcellulose) (HPC)); 100 % of control (dose: 200.0 mg/kg/injection, schedule: Q01DX009 (ip), vehicle: Klucel (hydroxypropylcellulose) (HPC)); 93 % of control (dose: 400.0 mg/kg/injection, schedule: Q01DX009 (ip), vehicle: Klucel (hydroxypropylcellulose) (HPC)).
Take `CCC(=O)OC1(c2ccccc2)CCN(C)C1C` (stereo unspecified): the T/C is 102 % of control under setting [7]; 102 % of control (dose: 12.5 mg/kg/injection, schedule: Q01DX009 (ip), vehicle: saline); 95 % of control (dose: 25.0 mg/kg/injection, schedule: Q01DX009 (ip), vehicle: saline); 97 % of control (dose: 50.0 mg/kg/injection, schedule: Q01DX009 (ip), vehicle: saline); 90 % of control under setting [8].
For `CCc1nc(N)nc(N)c1-c1ccc(Cl)c(Cl)c1.[Cl][Pd][Cl]`, the T/C under setting [7] is 97 % of control.
For the compound `Cc1cc2c(c(O)c1CN1CCOCC1)C1=C(CCCC1)C(C)(C)O2`, the T/C (dose: 32.0 mg/kg/injection, schedule: Q01DX009 (ip), vehicle: Klucel (hydroxypropylcellulose) (HPC)) is 108 % of control; the T/C (dose: 64.0 mg/kg/injection, schedule: Q01DX009 (ip), vehicle: Klucel (hydroxypropylcellulose) (HPC)) was 98 % of control; the T/C (dose: 128.0 mg/kg/injection, schedule: Q01DX009 (ip), vehicle: Klucel (hydroxypropylcellulose) (HPC)) is 93 % of control; the T/C (dose: 256.0 mg/kg/injection, schedule: Q01DX009 (ip), vehicle: Klucel (hydroxypropylcellulose) (HPC)) was 103 % of control.
On to `C/C(=C\c1ccccc1)C(=O)c1ccccc1`, for which the T/C runs as follows: (dose: 100.0 mg/kg/injection, schedule: Q04DX003 (ip), vehicle: saline with Tween-80) 100 % of control; (dose: 200.0 mg/kg/injection, schedule: Q04DX003 (ip), vehicle: saline with Tween-80) 113 % of control; (dose: 400.0 mg/kg/injection, schedule: Q04DX003 (ip), vehicle: saline with Tween-80) 92 % of control.
On to `CC1(C(=O)O)CCC2(C)CCC3(C)C(=CC(=O)C4C5(C)CCC(OC6OC(C(=O)O)C(O)C(O)C6OC6OC(C(=O)O)C(O)C(O)C6O)C(C)(C)C5CCC43C)C2C1` (stereo unspecified), for which the T/C was 106 % of control under setting [8]; 101 % of control (dose: 200.0 mg/kg/injection, schedule: Q01DX009 (ip), vehicle: saline); 102 % of control (dose: 400.0 mg/kg/injection, schedule: Q01DX009 (ip), vehicle: saline).
Turning to `O=C(O)C(/C=C/c1ccccc1)c1ccccc1` (stereo unspecified), the T/C is 95 % of control under setting [1] and 105 % of control under setting [3].
On to `Cc1ccc2nc(-c3ccc(N=Cc4ccccc4O)cc3)sc2c1`, for which the T/C is, setting by setting: (dose: 25.0 mg/kg/injection, schedule: Q01DX009 (ip), vehicle: olive oil, sesame oil, peanut oil) 87 % of control; (dose: 50.0 mg/kg/injection, schedule: Q01DX009 (ip), vehicle: olive oil, sesame oil, peanut oil) 86 % of control.
`CS(=O)(=O)OCCN(CCOS(C)(=O)=O)c1ccc(C=O)cc1`: under setting [5], the T/C was 170 % of control.
As to `C=CC(C)NC(=S)NNC(=S)NC` (stereo unspecified), the T/C is 97 % of control (dose: 25.0 mg/kg/injection, schedule: Q01DX009 (ip), vehicle: saline + alcohol); 102 % of control (dose: 50.0 mg/kg/injection, schedule: Q01DX009 (ip), vehicle: saline + alcohol); 104 % of control (dose: 100.0 mg/kg/injection, schedule: Q01DX009 (ip), vehicle: saline + alcohol); 98 % of control (dose: 200.0 mg/kg/injection, schedule: Q01DX009 (ip), vehicle: saline + alcohol); 97 % of control (dose: 400.0 mg/kg/injection, schedule: Q01DX009 (ip), vehicle: saline + alcohol).
Consider `CC[n+]1ccc(/C=C\c2c(Cl)cccc2Cl)cc1`, for which the T/C by setting is: under setting [9], 94 % of control; under setting [10], 88 % of control; under setting [11], 88 % of control.
Turning to `NC(CCSCc1ccccc1)C(=O)O` (stereo unspecified), the T/C is 105 % of control under setting [1], 96 % of control under setting [2] and 87 % of control under setting [3].
Turning to `O=C1CN=C(c2ccccc2)c2cc(Cl)ccc2N1`, the T/C under setting [9] was 102 % of control, the T/C under setting [10] is 90 % of control and the T/C under setting [11] is 90 % of control.
Consider `Nc1nc2nc[nH]c2c(=O)[nH]1`, for which the T/C reads like this: (dose: 25.0 mg/kg/injection, schedule: Q01DX009 (ip), vehicle: suspension in saline) 95 % of control; (dose: 50.0 mg/kg/injection, schedule: Q01DX009 (ip), vehicle: suspension in saline) 97 % of control; (dose: 100.0 mg/kg/injection, schedule: Q01DX009 (ip), vehicle: suspension in saline) 88 % of control; (dose: 200.0 mg/kg/injection, schedule: Q01DX009 (ip), vehicle: suspension in saline) 86 % of control.
As for `COc1ccc(C2=CN(S(=O)(=O)c3ccc(C)cc3)CCc3ccccc32)cc1`, the T/C reads like this: (dose: 25.0 mg/kg/injection, schedule: Q04DX003 (ip), vehicle: Klucel (hydroxypropylcellulose) (HPC)) 112 % of control; (dose: 50.0 mg/kg/injection, schedule: Q04DX003 (ip), vehicle: Klucel (hydroxypropylcellulose) (HPC)) 110 % of control; (dose: 100.0 mg/kg/injection, schedule: Q04DX003 (ip), vehicle: Klucel (hydroxypropylcellulose) (HPC)) 91 % of control and 111 % of control; (dose: 400.0 mg/kg/injection, schedule: Q04DX003 (ip), vehicle: Klucel (hydroxypropylcellulose) (HPC)) 90 % of control.
On to `CCCCCCCC/C=C\CCCCCCCC(=O)N(C)CC(=O)O`, for which the T/C is 118 % of control under setting [6]; 105 % of control (dose: 25.0 mg/kg/injection, schedule: Q01DX009 (ip), vehicle: saline with Tween-80); 104 % of control under setting [4].

Source of the values: PubChem BioAssay AID192 (DTP/NCI, 2004).
